Laboratory results taken from publication PMC8536627, “Hydrolytic stability of anticancer drugs and one metabolite in the aquatic environment” (Environmental Science and Pollution Research International, 2021).
Where “and” joins values, the source holds several entries; their conditions need not be identical. Equal values may be shown once. Entries after “also recorded” stand apart in the source; their conditions may differ. Read-outs that look alike come from different tables or passages of the source. One block for each compound: values may come before it.

Tests used:
physchem [1] = details: for Hydrolytic stability in the preliminary test: pH 4, 7 and 9, 50 °C; for Hydrolytic stability in the preliminary test / Degradation level in the preliminary test: 5 days; for Degradation level in the preliminary test: dark
Description: The incubation was performed in the dark, in order to avoid the influence of the photolysis on degradation of the analytes. The water used for the preparation of buffers was autoclaved, all glassware was clean, flushed with methanol, and dried in high temperature. Samples were closed in glass tubes with a sealed cap. The air from above the solution was removed by a nitrogen stream just before capping. In the preliminary test, solutions of single analytes were prepared in each tested pH: 4, 7, and 9, which is required by the OECD guidelines. There was also a blank sample prepared for each pH. Samples in the preliminary test were prepared in two parallel replicates. Moreover, the complete preliminary test was repeated twice. The preliminary test was performed at 50 °C for 5 days. […] In the case of the extended tests, 7 measuring points were provided during the time of the test. Each measuring point was performed in two parallel replicates. […] The test was conducted for 30 days or to 90 % elimination of a compound. Obtained results were used to determine the hydrolysis rate constant (k) using equation: 1 lnCt/C0=kt
The HPLC-UV/Vis technique was applied to determine the level of hydrolytic degradation of the analytes. In the preliminary test, the control and blank samples were analyzed at the beginning and the end of the test. […] In the extended test, the samples collected in the time intervals were analyzed, and peak areas were compared to those obtained at the beginning of the test. This was used to determine the kinetic of this hydrolysis process by using the Equation 1. In general, each analyte was analyzed by a simple HPLC method with UV/Vis detection. Gemini C18 (Phenomenex, USA), 5 μm, 110 Å, 150 mm × 4.6 mm chromatographic column was applied for each method and three different mobile phases were used (water or 0.1 % HCOOH) mixed with the acetonitrile. The conditions applied during the LC-MS analysis with an ion trap detector for the qualitative analysis of the samples collected after the extended tests at 20 and 70 °C are presented in the Table S2.

[2] = design: method as in Negreira et al. ([2013b]); details: acidification of samples, organic modifier such as 50 % methanol or DMSO, previously tested conditions; ref Negreira et al. ([2013b]); cited from earlier work
[3] = design: method as in Białk-Bielińska et al. [2017]; details: ref Białk-Bielińska et al. [2017]; cited from earlier work
[4] = HPLC water with 4 % DMSO, ref Negreira et al. ([2013a]), cited from earlier work
physchem [5] = format: physicochemical; details: for half-life: buffer
Description: Moreover, the complete preliminary test was repeated twice. […] Each measuring point was performed in two parallel replicates.
where t, time; ct, c0, concentration of the analyte at a time (0 means the beginning of the test); k, rate constant.
Based on this, the t1/2 was determined by using the equation: 2 t1/2=ln2/k
where t1/2, half-life of the analyte; k, rate constant.
The degradation was monitored for 30 days or until 90 % of a compound was degraded. Based on the obtained results (Fig. 4) the constant rates (k) and half-lives (t1/2) have been calculated (Table 1).
After determining the hydrolysis rate constants it was possible to calculate activation energy (Ea) of this process at each pH, either from plotting ln k from T^−1 (Figure 5) when there were three k values obtained for each compound and pH (CP at pH 4, 7, and 9 as well as IF at pH 4) or from the following equation (for IF at pH 7 and 9, where only two k values were obtained) (Table 1): 4 E=Rlnk2−lnk1/1/T1¯−1/T2
where R, gas constant (8.314 J/mol × K); k1, k2, rate constants for different temperatures; T, absolute temperature (K).

physchem [6] = format: physicochemical; details: for half-life: buffer, read-out: t½, extrapolated half-life (converted)
Description: By obtaining at least two rate constants for two different temperatures, it is possible to calculate the rate constants and, in consequence, half-lives at other temperatures, according to the Arrhenius equation: 3 k=A×e^−E/R×Torlnk=−E/R×T+lnA
Therefore, these equations were applied to extrapolate the obtained results and calculate the rate constants and half-lives of unstable anticancer drugs in more environmentally relevant temperatures (4, 10, or 15 °C), which are typical to natural waters.
Additionally, these observations confirm that CP is much more vulnerable for hydrolysis than IF, which is interesting how two isomers (like CP and IF) may differently undergo hydrolysis process. […] If the conclusions were drawn only based on the results from the preliminary experiments (incubation at 50 °C for 5 days), it would be assumed that both compounds, especially CP, are very unstable. […] Moreover, using Equation 3, it was possible to extrapolate the results to determine the rate constants and half-lives at the temperatures 4, 10, and 15 °C, which are ordinary for environmental waters (Table 2).

[7] = design: method as in Muñoz et al. ([1996]); details: 20 °C, pH 5; ref Muñoz et al. ([1996]); cited from earlier work
[8] = milli-Q water, room temperature, natural pH; ref Franquet-Griell et al. [2017]; cited from earlier work
[9] = ref Gómez-Canela et al. [2015], cited from earlier work

half-life (physchem [1]; aqueous buffer): ≥ 365 days | Hydrolytic stability in the preliminary test (physchem [1]): hydrolytically stable | Degradation level in the preliminary test (physchem [1]; pH 4, 50 °C): 7%
SMILES: CN(Cc1nc2c(N)nc(N)nc2nc1O)c1ccc(C(=O)N[C@@H](CCC(=O)O)C(=O)O)cc1 [7-OH-MTX, 7-hydroxymethotrexate]
Stability after acidification and with organic modifier [2]: stable | Hydrolytic stability under ecotoxicological test conditions [3]: hydrolytically stable | Photolytic stability under ecotoxicological test conditions [3]: susceptible to photolysis | Remained intact ([4]; 4 °C, 24 h): 86% | Concentration decreased to ([4]; 4 °C, after 9 days): around 50% | Stability in 24 h test ([4]; 15 °C, 24 h): none of the 7-OH-MTX left in the solution | Degradation level / loss ([4]; 25 °C, 24 h incubation): full degradation

SMILES: O=P1(NCCCl)OCCCN1CCCl (stereo not drawn) [IF, ifosfamide]
Degradation level in the preliminary test (physchem [1]; pH 7, 50 °C): 22.3% | Degradation level in the preliminary test (physchem [1]; pH 9, 50 °C): 27.5% | Degradation in 30 days (physchem [5]; 20 °C, pH 7): no degradation occurred; also recorded: no changes in the initial concentration; also recorded: completely stable | Degradation in 30 days (physchem [5]; 20 °C, pH 9): no degradation occurred; also recorded: no changes in the initial concentration; also recorded: completely stable | k, hydrolysis rate constant (physchem [5]; 20 °C, pH 4): 0.00038 h⁻¹ | k, hydrolysis rate constant (physchem [5]; 50 °C, pH 4): 0.008 h⁻¹ | k, hydrolysis rate constant (physchem [5]; 50 °C, pH 7): 0.0029 h⁻¹ | k, hydrolysis rate constant (physchem [5]; 50 °C, pH 9): 0.0036 h⁻¹ | k, hydrolysis rate constant (physchem [5]; 70 °C, pH 4): 0.059 h⁻¹ | k, hydrolysis rate constant (physchem [5]; 70 °C, pH 7): 0.041 h⁻¹ | k, hydrolysis rate constant (physchem [5]; 70 °C, pH 9): 0.049 h⁻¹ | half-life (physchem [5]; pH 4, 20 °C, pH 4, read-out: Half-life (converted)): ~80 days | half-life (physchem [5]; pH 4, 20 °C, pH 4, read-out: t½, half-life (converted)): 76.8 days | half-life (physchem [5]; pH 4, 50 °C, pH 4, read-out: t½, half-life (converted)): 3.6 days | half-life (physchem [5]; pH 4, 70 °C, pH 4, read-out: t½, half-life (converted)): 0.488 days | half-life (physchem [5]; pH 7, 50 °C, pH 7, read-out: t½, half-life (converted)): 10.1 days | half-life (physchem [5]; pH 7, 70 °C, pH 7, read-out: t½, half-life (converted)): 0.704 days | half-life (physchem [5]; pH 9, 50 °C, pH 9, read-out: t½, half-life (converted)): 7.99 days | half-life (physchem [5]; pH 9, 70 °C, pH 9, read-out: t½, half-life (converted)): 0.583 days | Ea, activation energy of hydrolysis (physchem [5]; pH 4): 20.1 kcal/mol | Ea, activation energy of hydrolysis (physchem [5]; pH 7): 29.21 kcal/mol | Ea, activation energy of hydrolysis (physchem [5]; pH 9): 29.21 kcal/mol and 28.7 kcal/mol | k, extrapolated rate constant (physchem [6]; 4 °C, pH 4): 8.3e-05 h⁻¹ | k, extrapolated rate constant (physchem [6]; 4 °C, pH 7): 3e-06 h⁻¹ | k, extrapolated rate constant (physchem [6]; 4 °C, pH 9): 4e-06 h⁻¹ | k, extrapolated rate constant (physchem [6]; 10 °C, pH 4): 0.000107 h⁻¹ | k, extrapolated rate constant (physchem [6]; 10 °C, pH 7): 5e-06 h⁻¹ | k, extrapolated rate constant (physchem [6]; 10 °C, pH 9): 6e-06 h⁻¹ | k, extrapolated rate constant (physchem [6]; 15 °C, pH 4): 0.000199 h⁻¹ | k, extrapolated rate constant (physchem [6]; 15 °C, pH 7): 1.1e-05 h⁻¹ | k, extrapolated rate constant (physchem [6]; 15 °C, pH 9): 1.6e-05 h⁻¹ | half-life (physchem [6]; pH 4, 4 °C, pH 4): 349 days | half-life (physchem [6]; pH 4, 10 °C, pH 4): 271 days | half-life (physchem [6]; pH 4, 15 °C, pH 4): 146 days | half-life (physchem [6]; pH 7, 10 °C, pH 7): 6360 days | half-life (physchem [6]; pH 7, 15 °C, pH 7): 2580 days | half-life (physchem [6]; pH 9, 4 °C, pH 9): 6510 days | half-life (physchem [6]; pH 9, 10 °C, pH 9): 4520 days | half-life (physchem [6]; pH 9, 15 °C, pH 9): 1860 days | half-life [7]: around 620 days

SMILES: Cc1ccc(NC(=O)c2ccc(CN3CCN(C)CC3)cc2)cc1Nc1nccc(-c2cccnc2)n1 [IMT, imatinib]
Hydrolytic stability in the preliminary test (physchem [1]): hydrolytically stable

SMILES: CCCCCOC(=O)Nc1nc(=O)n([C@@H]2O[C@H](C)[C@@H](O)[C@H]2O)cc1F [capecitabine]
Hydrolytic stability in milli-Q water [8]: stable

SMILES: O=C(O)CCCc1ccc(N(CCCl)CCCl)cc1 [chlorambucil]
Hydrolytic stability in milli-Q water [8]: highly unstable | Remaining part degraded within 24 h ([9]; hard water, initial concentration 10 ng μL^−1, within 24 h): 19% | Transformed at the beginning of the test ([9]; hard water, initial concentration 10 ng μL^−1): 81% | Transformation in hard water ([9]; initial concentration 2 ng μL^−1): instant and complete transformation

SMILES: COc1cccc2c1C(=O)c1c(O)c3c(c(O)c1C2=O)C[C@@](O)(C(C)=O)C[C@@H]3O[C@H]1C[C@H](N)[C@H](O)[C@H](C)O1 [daunorubicin]
Hydrolytic stability in milli-Q water [8]: highly unstable

SMILES: COc1cccc2c1C(=O)c1c(O)c3c(c(O)c1C2=O)C[C@@](O)(C(=O)CO)C[C@@H]3O[C@H]1C[C@H](N)[C@H](O)[C@H](C)O1 [doxorubicin]
Hydrolytic stability in milli-Q water [8]: highly unstable

SMILES: Nc1ccn([C@@H]2O[C@H](CO)[C@@H](O)C2(F)F)c(=O)n1 [gemcitabine]
Hydrolytic stability in milli-Q water [8]: stable

SMILES: CCc1c2c(nc3ccc(OC(=O)N4CCC(N5CCCCC5)CC4)cc13)-c1cc3c(c(=O)n1C2)COC(=O)[C@]3(O)CC [irinotecan]
Hydrolytic stability in milli-Q water [8]: highly unstable

SMILES: N[C@@H](Cc1ccc(N(CCCl)CCCl)cc1)C(=O)O [melphalan]
Hydrolytic stability in milli-Q water [8]: highly unstable

SMILES: COc1c(C)c2c(c(O)c1C/C=C(\C)CCC(=O)O)C(=O)OC2 [mycophenolic acid]
Hydrolytic stability in milli-Q water [8]: stable

SMILES: CC[C@]1(O)C[C@H]2CN(CCc3c([nH]c4ccccc34)[C@@](C(=O)OC)(c3cc4c(cc3OC)N(C=O)[C@H]3[C@@](O)(C(=O)OC)[C@H](OC(C)=O)[C@]5(CC)C=CCN6CC[C@]43[C@@H]65)C2)C1 [vincristine]
Hydrolytic stability in milli-Q water [8]: highly unstable
